According to PMC3950497 (Advances in Pharmacological Sciences, 2014):
Like-named read-outs stand apart in the source and are kept apart here.

Experiments:
[1] = type: physicochemical
Description: Freeze-thaw stability of stephaglabrine sulfate solution was evaluated because samples were stored at −20°C. The stability of stephaglabrine pool solutions (in water-acetonitrile 20%) at concentrations of 10 μg/mL, 50 μg/mL, and 100 μg/mL was evaluated after three cycles of overnight freezing following 3 hours of bench thaw at ambient temperature. The loss of stepharine was evaluated by comparison with freshly prepared standard solutions of the same concentrations. Loss of 10% and less was accepted.

[2] = type: in vivo, rabbit; settings: for Measured mean concentration of stephaglabrin in plasma: i.m. stephaglabrine sulfate 0.1 mg/kg single dose
Description: The selected rabbits were administrated intramuscular with stephaglabrine sulfate at doses 0.1 mg/kg as it was established before. Each animal received a single dose.
Quantitative analysis was acquired in SRM (selected reactions monitoring) mode on Agilent 6490 triple quadrupole mass spectrometer (Agilent, USA) operated in the positive mode and equipped with Jet Stream ESI ion source. Stepharine was detected in the scheduled selected reaction monitoring (SRM) with unit resolution at both first (Q1) and third (Q3) quadrupoles. The retention time point of stepharine was determined as 9.8 with isolation width of 1 minute for the scheduled SRM method application. The optimal conditions of the analysis were achieved as follows: capillary voltage was −4500 V, nozzle voltage was set at −1200 V, flow rate of drying gas (N2) was 16 L/min, flow rate of sheath gas (N2) was 8 L/min, temperature of drying gas was set at 340°C, temperature of sheath gas was set at 290°C, and nebulizer gas was operated at 20 psi. The transitions for protonated stepharine [M+H]^+ 298.4 → 161.2, 192.1, 238.2 were selected for SRM analysis. The isolation window for the fragment ions was set at 0.27 amu, the optimum fragmentor voltage was adjusted to 310 V and collision energy −19 eV. All the samples including calibration points were analyzed in three replications. 30 μL of the samples was injected and loaded on chromatographic column. Calibration was performed on standard samples solution prepared in 20% acetonitrile with concentration of stepharine from 10^−4 μg/mL to 100 μg/mL. Chromatographic separation was performed on Thermo Hypersil-Keystone ODS column (Thermo Scientific, USA) 100 × 2.1 mm, 5 μm particle size, at flow rate of 200 μL/min and with the following elution conditions: loading onto the column at maintained 20% of mobile phase B for 3 minutes, increasing the gradient to 50% of B at 5 minutes following increasing the gradient to 100% of mobile phase B at 15 minutes. The column was washed and maintained at 100% mobile phase B from 15 to 22 minutes and the composition was decreased to 20% of solvent B at 23 minute. The column was reequilibrated at starting conditions of solvent A-solvent B system ([…], v/v) for 10 minutes at flow 200 μL/min.
0.5 mL of blood samples from each animal was collected from ear vein in the tubes with EDTA before administration and at 15, 30, 60, 90, 120, 180, 480, 720, and 1440 minutes after drug ingestion. Blood samples were immediately put on ice and centrifuged at 5000 g for 10 minutes at 4°C within one hour after blood collection. The obtained plasma was placed in sterile tube and kept at −20°C until analysis.
Plasma proteins were precipitated with acetonitrile. For this purpose, two volumes of acetonitrile were added to 100 μL of rabbit plasma into 1.5 mL plastic tube and 30% ammonia hydroxide was added to adjust the pH to 10. After vortex-mixing for 15 minutes at ambient temperature one volume of chloroform was added three times consequently for 2 hours and incubated at 30°C under regular stirring at 900 rpm at each occasion. The first fraction of upper organic layer was collected after 2 hours of incubation, the second and the third fractions of chloroform extract were collected after additional 30 and 60 minutes of incubation, respectively. The collected fractions were combined and transferred to a new tube and dried under vacuum at 30°C. The resulting pellet was resuspended in 100 μL of 20% water-acetonitrile solution and centrifuged at 14000 rpm for 15 minutes immediately before use. The obtained solution was used for LC-MS analysis. […]

In the case of `COc1cc2c3c(c1OC)C1(C=CC(=O)C=C1)C[C@@H]3NCC2` [stepharine], the “loss during three freeze-thaw cycles” value ([1]; solutions in water-acetonitrile 20% at 10, 50 and 100 μg/mL, overnight freezing, 3 hours bench thaw at ambient temperature) is reported as “less than 6%”, the mean sample stability ([1]; three freeze-thaw cycles, solutions in water-acetonitrile 20%) is reported as 94.6% and the “time of maximum concentration (C max)” value ([2]; all rabbits, i.m. 0.1 mg/kg stephaglabrine sulfate) is reported as 90 min. For the same molecule, the “Measured mean concentration of stephaglabrin in plasma” value (“Measured mean concentration” for short) ([2]; rabbit ST01, 15 min after administration) was 8.1 ± 0.6 ng/mL, the “Measured mean concentration” value ([2]; rabbit ST01, 30 min after administration) was 9.4 ± 0.5 ng/mL and the “Measured mean concentration” value ([2]; rabbit ST01, 60 min after administration) was 10.0 ± 0.3 ng/mL. For the same molecule, the “Measured mean concentration” value ([2]; rabbit ST01, 90 min after administration) was 13.9 ± 0.9 ng/mL, the “Measured mean concentration” value ([2]; rabbit ST01, 120 min after administration) was 5.8 ± 0.1 ng/mL and the “Measured mean concentration” value ([2]; rabbit ST01, 180 min after administration) was 3.8 ± 0.1 ng/mL. The “Measured mean concentration” value ([2]; rabbit ST01, 480 min after administration) was 1.8 ± 0.02 ng/mL, the “Measured mean concentration” value ([2]; rabbit ST01, 720 min after administration) was 1.5 ± 0.02 ng/mL and the “Measured mean concentration” value ([2]; rabbit ST01, 1440 min after administration) was 0 ng/mL. The “Measured mean concentration” value ([2]; rabbit ST02, 15 min after administration) was 7.9 ± 0.2 ng/mL, the “Measured mean concentration” value ([2]; rabbit ST02, 30 min after administration) was 16.5 ± 0.8 ng/mL and the “Measured mean concentration” value ([2]; rabbit ST02, 60 min after administration) was 29.3 ± 2.2 ng/mL. The “Measured mean concentration” value ([2]; rabbit ST02, 90 min after administration) was 33.9 ± 2.8 ng/mL, the “Measured mean concentration” value ([2]; rabbit ST02, 120 min after administration) was 10.4 ± 0.5 ng/mL and the “Measured mean concentration” value ([2]; rabbit ST02, 180 min after administration) was 7.8 ± 0.3 ng/mL. The “Measured mean concentration” value ([2]; rabbit ST02, 480 min after administration) was 1.2 ± 0.02 ng/mL, the “Measured mean concentration” value ([2]; rabbit ST02, 720 min after administration) was 1.3 ± 0.01 ng/mL and the “Measured mean concentration” value ([2]; rabbit ST02, 1440 min after administration) was 0 ng/mL. The “Measured mean concentration” value ([2]; rabbit ST03, 15 min after administration) was 6.8 ± 0.4 ng/mL, the “Measured mean concentration” value ([2]; rabbit ST03, 30 min after administration) was 14.8 ± 0.2 ng/mL and the “Measured mean concentration” value ([2]; rabbit ST03, 60 min after administration) was 19.5 ± 0.6 ng/mL. The “Measured mean concentration” value ([2]; rabbit ST03, 90 min after administration) was 20.4 ± 1.7 ng/mL, the “Measured mean concentration” value ([2]; rabbit ST03, 120 min after administration) was 6.5 ± 0.1 ng/mL and the “Measured mean concentration” value ([2]; rabbit ST04, 15 min after administration) was 5.7 ± 0.2 ng/mL. The “Measured mean concentration” value ([2]; rabbit ST04, 30 min after administration) was 7.3 ± 0.3 ng/mL, the “Measured mean concentration” value ([2]; rabbit ST04, 60 min after administration) was 9.5 ± 0.5 ng/mL and the “Measured mean concentration” value ([2]; rabbit ST04, 90 min after administration) was 14.2 ± 0.2 ng/mL. The “Measured mean concentration” value ([2]; rabbit ST04, 120 min after administration) was 9.7 ± 0.2 ng/mL, the “Measured mean concentration” value ([2]; rabbit ST04, 180 min after administration) was 2.8 ± 0.2 ng/mL and the “Measured mean concentration” value ([2]; rabbit ST04, 480 min after administration) was 0.7 ± 0.01 ng/mL. For the same molecule, the “Measured mean concentration” value ([2]; rabbit ST04, 720 min after administration) was 0.6 ± 0.01 ng/mL, the “Measured mean concentration” value ([2]; rabbit ST04, 1440 min after administration) was 0 ng/mL and the “Measured mean concentration” value ([2]; rabbit ST05, 15 min after administration) was 6.3 ± 0.2 ng/mL. The “Measured mean concentration” value ([2]; rabbit ST05, 30 min after administration) was 12.7 ± 0.3 ng/mL, the “Measured mean concentration” value ([2]; rabbit ST05, 60 min after administration) was 18.5 ± 0.2 ng/mL and the “Measured mean concentration” value ([2]; rabbit ST05, 90 min after administration) was 21.2 ± 0.2 ng/mL. For the same molecule, the “Measured mean concentration” value ([2]; rabbit ST05, 120 min after administration) was 5.1 ± 0.3 ng/mL, the “Measured mean concentration” value ([2]; rabbit ST05, 180 min after administration) was 2.9 ± 0.07 ng/mL and the “Measured mean concentration” value ([2]; rabbit ST05, 480 min after administration) was 1.4 ± 0.08 ng/mL. For the same molecule, the “Measured mean concentration” value ([2]; rabbit ST05, 720 min after administration) was 0.9 ± 0.04 ng/mL, the “Measured mean concentration” value ([2]; rabbit ST05, 1440 min after administration) was 0 ng/mL and the “Measured mean concentration” value ([2]; rabbit ST06, 15 min after administration) was 7.0 ± 0.3 ng/mL. For the same molecule, the “Measured mean concentration” value ([2]; rabbit ST06, 30 min after administration) was 13.9 ± 0.2 ng/mL, the “Measured mean concentration” value ([2]; rabbit ST06, 60 min after administration) was 20.4 ± 0.2 ng/mL and the “Measured mean concentration” value ([2]; rabbit ST06, 90 min after administration) was 25.8 ± 0.1 ng/mL. The “Measured mean concentration” value ([2]; rabbit ST06, 120 min after administration) was 7.6 ± 0.09 ng/mL, the “Measured mean concentration” value ([2]; rabbit ST06, 180 min after administration) was 3.3 ± 0.08 ng/mL and the “Measured mean concentration” value ([2]; rabbit ST06, 480 min after administration) was 1.2 ± 0.08 ng/mL. The “Measured mean concentration” value ([2]; rabbit ST06, 720 min after administration) was 0.7 ± 0.02 ng/mL, the “Measured mean concentration” value ([2]; rabbit ST06, 1440 min after administration) was 0 ng/mL and the “presence in plasma samples after 24 hours” value ([2]; rabbits, 24 hours after intramuscular administration) was “not found”. The “apparent volume of distribution” value ([2]; rabbits, estimated as ratio of clearance to elimination rate constant, data not shown) was “extensively distributed throughout the body”.
